What all share (assay type): in vivo, mouse
Assay [1] has as its system C57BL/6N mice. Briefly: Glucose tolerance test in mice. As to conditions: wild type mice containing intact, functional SSTR3. Here is the method: (§1) Male C57BL/6N mice (7-12 weeks of age) are housed 10 per cage and given access to normal diet rodent chow and water ad libitum. Mice are randomly assigned to treatment groups and fasted 4 to 6 h. Baseline blood glucose concentrations are determined by glucometer from tail nick blood. Animals are then treated orally with vehicle (0.25% methylcellulose) or test compound. Blood glucose concentration is measured at a set time point after treatment (t=0 min) and mice are then challenged with dextrose intraperitoneally- (2-3 g/kg) or orally (3-5 g/kg). One group of vehicle-treated mice is challenged with saline as a negative control. Blood glucose levels are determined from tail bleeds taken at 20, 40, 60 minutes after dextrose challenge. […] Percent inhibition values for each treatment are generated from the AUC data normalized to the saline-challenged controls. A similar assay may be performed in rats.

A further assay concerns SSTR3 knock out mice. Briefly: Glucose tolerance test in SSTR3 gene knockout mice. The following applies: oral dose in the range of 1 to 30 mg/kg po. As to the method:
as §1
In order to assess the selectivity of blockade of SSTR3, compounds were evaluated in the oral glucose tolerance test (oGTT) described above in mice lacking the gene for a functional SSTR3.

Assay [2] concerns C57BL/6N mice. Briefly: Oral glucose tolerance test in mice, SSTR3 antagonist combined with DPP-4 inhibitor. As to conditions: suboptimal doses 0.001 to 0.1 mg/kg po with low doses of a DPP-4 inhibitor such as sitagliptin and des-fluoro-sitagliptin.
Procedure: Compounds of the present invention were combined with dipeptidyl peptidase-IV (DPP-4) inhibitors in oral glucose tolerance test (oGTT) described above. Male C57BL/6N mice (7-12 weeks of age) were housed 10 per cage and given access to normal rodent chow and water ad libitum. Mice were randomly assigned to treatment groups and fasted 4 to 6 h. Baseline blood glucose concentrations were determined by glucometer from tail nick blood. […] Blood glucose concentration was measured at a set time point after treatment (t=0 min) and mice were then challenged with dextrose intraperitoneally (2-3 g/kg) or orally (3-5 g/kg). One group of vehicle-treated mice was challenged with saline as a negative control. Blood glucose levels were determined from tail bleeds taken at 20, 40, 60 min after dextrose challenge. […] Percent inhibition values for each treatment were generated from the AUC data normalized to the saline-challenged controls.

For `Cc1nc(C2N[C@@H](c3nc(-c4ccc(F)cc4)c[nH]3)Cc3c2[nH]c2ccccc32)no1` (stereo partly drawn) [Example 17, (3R)-3-[4-(4-Fluorophenyl)-1H-imidazol-2-yl]-1-(5-methyl-1,2,4-oxadiazol-3-yl)-2,3,4,9-tetrahydro-1H-β-carboline], the “inhibition of glucose excursion in oGTT” value is on record as “inhibit glucose excursion” in the assay on C57BL/6N mice [1] and “failed to significantly inhibit glucose excursion” in the assay with SSTR3 knock out mice.
On to `CCOCC1(c2cnn(C)c2)N[C@@H](c2nc(-c3ccc(F)cc3)c[nH]2)Cc2c1[nH]c1ccccc21` (stereo partly drawn) [Example 20, (3R)-[4-(4-Fluorophenyl)-1H-imidazol-2-yl]-1-(ethoxymethyl)-1-(1-methyl-1H-pyrazol-4-yl)-2,3,4,9-tetrahydro-1H-β-carboline], for which the “inhibition of glucose excursion in oGTT” value in the assay on C57BL/6N mice [1] is “inhibit glucose excursion”; in the assay on SSTR3 knock out mice, “failed to significantly inhibit glucose excursion”. Moreover, the “activity in oGTT in combination with a DPP-4 inhibitor versus alone” value in the assay with C57BL/6N mice [2] is on record as “more active in combination with low doses of a DPP-4 inhibitor”.
Regarding `Cc1nc(C2(c3cnn(C)c3)N[C@@H](c3nc(-c4ccc(F)cc4)c[nH]3)Cc3c2[nH]c2ccccc32)no1` (stereo partly drawn) [Example 21, (3R)-[4-(4-Fluorophenyl)-1H-imidazol-2-yl]-1-(5-methyl-1,2,4-oxadiazol-3-yl)-1-(1-methyl-1H-pyrazol-4-yl)-2,3,4,9-tetrahydro-1H-β-carboline], in the assay on C57BL/6N mice [1], the “inhibition of glucose excursion in oGTT” value is given as “inhibit glucose excursion”.

Values taken from patent publication US20100184758A1, “BETA CARBOLINE DERIVATIVES AS ANTIDIABETIC COMPOUNDS” (priority 2007, published 2010).
